# Assay results reported in patent publication US3995058A, “Treatment of ethanol withdrawal symptoms with levodopa” (priority 1975, dated 1976).
# Where two headings read alike, the source gives them in different places.
# Assays:
# parkinsonism tremor = details: in vivo; cited from earlier work
# [1] = test system: delirium tremors or seizures; details: severe cases of physical dependence; cited from earlier work
# [2] = Therapeutic ratio FD50/ED50 (discoordination against head-twitches); details: mouse, in vivo
# Experimental: (§1) Male T/O mice were habituated to ethanol by oral administration of aqueous ethanol solutions over three days. Ethanol was administered as a 40% w/v solution, the animals receiving 4 g/kg on the first day, 5 g/kg on the second day and 6 g/kg on the third day. Twenty-four hours after the third dose, approximately 12 hours after blood ethanol had fallen to zero, mice were observed over a period of 4 minutes in groups of five and the number of head-twitches were recorded for each animal. All animals received two doses of levodopa or vehicle, one 6 hours after the last dose of ethanol and the other one hour before observation of the animals. The amount of discoordination produced by each treatment was also determined by measuring the animals' ability to remain for 1 minute on a drum, 30 cm diameter, rotating at a speed of 1 rpm. Using a quantal method the median effective dose (ED50) to suppress head-twitches was determined. […] The ratio FD50 to ED50 gives the therapeutic ratio.
# (§2) occasion. The dose of each drug to discoordinate 50% of the animals (FD
# (§3) 50) was compared with the dose that reduced to 50% the proportion of mice
# (§4) showing head-twitches (ED 50).
# [3] = test system: ethanol withdrawal head-twitches; assay: Suppression of ethanol withdrawal head-twitches in mice habituated to ethanol; assay type: in vivo, mice (male T/O); details: for ED50: Mus musculus; for suppression of head-twitches: mice undergoing ethanol withdrawal
# Experimental: as §1
# All drugs given one hour before observation except noradrenaline (35
# minutes). Doses are expressed as mg/kg orally (P.O.), subcutaneously
# (S.C.) or intracerebrally (I.C.V.). *Animals in levodopa experiment
# received two doses of levodopa or vehicle, the first being given six hour
# after the last dose of ethanol, the second one hour before observation.
# The values indicated are computed from the doses of levodopa given on eac
# as §2, §3, §4
# [4] = Discoordination: ability to remain for 1 minute on a rotating drum; details: mouse, in vivo; for TD50 at 1 h: po
# Experimental: as §1, §2, §3
# withdrawal symptoms = assay: Production of withdrawal symptoms; details: in vivo
# brain catecholamines = details: increasing doses of levodopa; cited from earlier work
# depression = details: in vivo; cited from earlier work
# discoordination = assay: Discoordination: ability to remain for 1 minute on a rotating drum; details: mouse, in vivo
# Experimental: as §1, §2, §3
# sleep = details: cited from earlier work
smiles,measurement,setting,value
"NC(CO)C(=O)NNCc1cc(O)c(O)c(O)c1 (racemic) [N'-(D,L-seryl)-N""-(3,4,5-trihydroxybenzyl)-hydrazine]",control of parkinsonism tremor,parkinsonism tremor,useful in the control of parkinsonism tremor
CN(C)CCCN1c2ccccc2Sc2ccccc21 [promazine],prevention of delirium tremors or seizures,[1],ineffective to prevent delirium tremors or seizures
CC(Cc1ccc(O)c(O)c1)(NN)C(=O)O (stereo not drawn) [α-methyl-dopa hydrazine],control of parkinsonism tremor,parkinsonism tremor,useful in the control of parkinsonism tremor
"CCO [Ethanol, ethanol]",selectivity ratio,[2]; po,0.6
same,ED50,"[3]; po, 1 h, P.O., one hour before observation, read-out: ED 50 value to reduce head-twitches (with 95% fiducial limits)",3990 mg/kg
same,TD50 at 1 h,[4],2500 mg/kg
CC(N)(Cc1ccc(O)cc1)C(=O)O (stereo not drawn) [α-methyl p-tyrosine],withdrawal symptoms produced,withdrawal symptoms,produces withdrawal symptoms that can be reduced by anti-serotonin agents
CC(N)Cc1ccccc1.O=S(=O)(O)O (centres unmarked) [Amphetamine sulphate],ED50,"[3]; sc, 1 h, read-out: ED 50 value to reduce head-twitches (with 95% fiducial limits)",7.18 mg/kg
same,suppression of head-twitches,[3]; subcutaneously,complete suppression of head-twitches
CCCC(C)C1(CC)C(=O)NC(=O)NC1=O (centres unmarked) [Pentobarbitone sodium],selectivity ratio,[2]; po,0.4
same,ED50,"[3]; po, 1 h, read-out: ED 50 value to reduce head-twitches (with 95% fiducial limits)",231 mg/kg
same,TD50 at 1 h,[4],91 mg/kg
NC[C@H](O)c1ccc(O)c(O)c1 [Noradrenaline],selectivity ratio,[2],> 3.3
same,ED50,"[3]; central, 35 min, I.C.V., 35 minutes before observation, read-out: ED 50 value to reduce head-twitches (with 95% fiducial limits)",0.003 mg/kg
same,suppression of head-twitches,[3]; intracerebral injection,complete suppression of head-twitches
same,TD50 at 35 min,[4]; icv or intrathecal,> 0.01 mg/kg
CN(C)CCCN1c2ccccc2Sc2ccc(Cl)cc21 [chlorpromazine],prevention of delirium tremors or seizures,[1],ineffective to prevent delirium tremors or seizures
"N[C@@H](Cc1ccc(O)c(O)c1)C(=O)O [L-DOPA, L-β-3,4-dihydroxyphenylalanine]",shift of brain catecholamine levels,brain catecholamines,increasing shift of brain levels from dopamine to noradrenaline
same,selectivity ratio,[2]; po,3.5
same,therapeutic use in the treatment of depression,depression,of questionable value
same,ED50,"[3]; po, P.O.*, two doses: 6 h after last ethanol and 1 h before observation, per-occasion dose, limits 63-1213, read-out: ED 50 value to reduce head-twitches (with 95% fiducial limits)",232 mg/kg
same,ED50,"[3]; po, levodopa, text of summary, read-out: median effective dose (ED50) required to prevent or suppress withdrawal symptoms",231 mg/kg
same,TD50 at 1 h,[4],> 800 mg/kg
same,animals discoordinated,discoordination,none of the animals were discoordinated
same,effect on sleeping time with repeated doses,sleep; increasing numbers of doses,this effect became smaller with increasing numbers of doses
same,increase in sleeping time,sleep; single dose 400 mg/kg,three-fold increase in sleeping time
